# Tests used:
# [1] = system: greenfoxtail (Setaria viridis L.); test: Test Example 1: foliar treatment, growth inhibition rate, greenfoxtail; assay type: in vivo; settings: 31 g/ha active ingredient, visually observed 17th to 23rd day after application
# Description: (§1) Upland field soil was put into a 1/170,000 hectare pot, and seeds of various plants were sown. When the respective plants reached predetermined leaf stage ((1) barnyardgrass (Echinochloa crus-galli L.); 0.8 to 2.5 leaf stage, (2) crabgrass (Digitaria sanguinalis L.): 0.5 to 3.0 leaf stage, (3) greenfoxtail (Setaria viridis L.): 1.0 to 3.0 leaf stage, (4) redroot pigweed (Amaranthus retroflexus L.): cotyledon stage to 2.0 leaf stage, (5) prickly sida (Sida spinosa L.): cotyledon stage to 1.1 leaf stage, (6) velvetleaf (Abutilon theophrasti MEDIC.): cotyledon stage to 1.5 leaf stage, (7) rice (Oryza sativa L.): 1.0 to 2.5 leaf stage, (8) wheat (Triticum spp.): 1.7 to 3.4 leaf stage, (9) corn (Zea mays L.): 2.0 to 3.5 leaf stage, and (10) soybean (Glycine max Merr.): primary leaf stage to 0.3 leaf stage), wettable powders or emulsifiable concentrates of the compounds of the present invention prepared in accordance with a conventional preparation method, were weighed so that the active ingredients became the prescribed amounts, and diluted with water in an amount corresponding to 500 liter per 1 hectare. 0.1 vol % of an agricultural spreader was further added to the respective diluted liquids, followed by foliar treatment with a small sprayer.
# (§2) On the 17th to 23rd day after application, the state of growth of the respective plants was visually observed, and the herbicidal effect was evaluated in accordance with a growth inhibition rate (%) of 0 (equivalent to the non-treated area) to 100% (complete kill).
# [2] = system: prickly sida (Sida spinosa L.); test: Test Example 1: foliar treatment, growth inhibition rate, prickly sida; assay type: in vivo; settings: 31 g/ha active ingredient, visually observed 17th to 23rd day after application
# Description: as §1, §2
# [3] = system: velvetleaf (Abutilon theophrasti MEDIC.); test: Test Example 1: foliar treatment, growth inhibition rate, velvetleaf; assay type: in vivo; settings: 31 g/ha active ingredient, visually observed 17th to 23rd day after application
# Description: as §1, §2
# rice (Oryza sativa L.) = test: Test Example 1: foliar treatment, growth inhibition rate, rice; assay type: in vivo; settings: 31 g/ha active ingredient, visually observed 17th to 23rd day after application
# Description: as §1, §2
# wheat (Triticum spp.) = test: Test Example 1: foliar treatment, growth inhibition rate, wheat; assay type: in vivo; settings: 31 g/ha active ingredient, visually observed 17th to 23rd day after application
# Description: as §1, §2
# redroot pigweed = test: Test Example 2: soil application on the day after sowing, growth inhibition rate, redroot pigweed; assay type: in vivo, Amaranthus retroflexus L.; settings: 250 g/ha active ingredient, observed on 19th to 24th day
# Description: (§3) Upland field soil was put into a 1/170,000 hectare pot, and seeds of various plants (barnyardgrass, crabgrass, greenfoxtail, redroot pigweed, prickly sida, velvetleaf, rice, wheat, corn and soybean) were sown. On the day after sowing, wettable powders or emulsifiable concentrates of the compounds of the present invention prepared in accordance with a conventional preparation method, were weighed so that the active ingredients became the prescribed amounts, and diluted with water in an amount corresponding to 500 liter per 1 hectare, followed by soil application with a small sprayer. On the 19th to 24th day after the application, the state of growth of the respective plants was visually observed, and the herbicidal effect was evaluated in accordance with a growth inhibition rate (%) of from 0 (equivalent to the non-treated area) to 100% (complete kill).
# crabgrass = test: Test Example 2: soil application on the day after sowing, growth inhibition rate, crabgrass; assay type: in vivo, Digitaria sanguinalis L.; settings: 250 g/ha active ingredient, observed on 19th to 24th day
# Description: as §3
# [4] = system: barnyardgrass (Echinochloa crus-galli L.); test: Test Example 1: foliar treatment, growth inhibition rate, barnyardgrass; assay type: in vivo; settings: 31 g/ha active ingredient, visually observed 17th to 23rd day after application
# Description: as §1, §2
# corn = test: Test Example 2: soil application on the day after sowing, growth inhibition rate, corn; assay type: in vivo, Zea mays L.; settings: 250 g/ha active ingredient, observed on 19th to 24th day
# Description: as §3
# corn (Zea mays L.) = test: Test Example 1: foliar treatment, growth inhibition rate, corn; assay type: in vivo; settings: 31 g/ha active ingredient, visually observed 17th to 23rd day after application
# Description: as §1, §2
# [5] = system: crabgrass (Digitaria sanguinalis L.); test: Test Example 1: foliar treatment, growth inhibition rate, crabgrass; assay type: in vivo; settings: 31 g/ha active ingredient, visually observed 17th to 23rd day after application
# Description: as §1, §2
# [6] = system: redroot pigweed (Amaranthus retroflexus L.); test: Test Example 1: foliar treatment, growth inhibition rate, redroot pigweed; assay type: in vivo; settings: 31 g/ha active ingredient, visually observed 17th to 23rd day after application
# Description: as §1, §2
# [7] = system: soybean (Glycine max Merr.); test: Test Example 1: foliar treatment, growth inhibition rate, soybean; assay type: in vivo; settings: 31 g/ha active ingredient, visually observed 17th to 23rd day after application
# Description: as §1, §2
# velvetleaf = test: Test Example 2: soil application on the day after sowing, growth inhibition rate, velvetleaf; assay type: in vivo, Abutilon theophrasti MEDIC.; settings: 250 g/ha active ingredient, observed on 19th to 24th day
# Description: as §3
Structure (SMILES),Growth inhibition rate (%) Greenfoxtail [1] [%],Growth inhibition rate (%) Prickly sida [2] [%],Growth inhibition rate (%) Velvetleaf [3] [%],Growth inhibition rate (%) Rice (rice (Oryza sativa L.)) [%],Growth inhibition rate (%) Wheat (wheat (Triticum spp.)) [%],Growth inhibition rate (%) redroot pigweed (redroot pigweed) [%],Growth inhibition rate (%) Crabgrass (crabgrass) [%],Growth inhibition rate (%) Barnyardgrass [4] [%],Growth inhibition rate (%) Corn (corn) [%],Growth inhibition rate (%) Corn (corn (Zea mays L.)) [%],Growth inhibition rate (%) Crabgrass [5] [%],Growth inhibition rate (%) redroot pigweed [6] [%],Growth inhibition rate (%) Soybean [7] [%],Growth inhibition rate (%) Velvetleaf (velvetleaf) [%]
CCSC(=O)Oc1c(C(=O)c2ccc(S(C)(=O)=O)c(CS(C)(=O)=O)c2C)cnn1C [compound 72],70,60,60,50,0,50,0,80,0,10,50,60,70,30
CCOCc1c(S(C)(=O)=O)ccc(C(=O)c2cnn(C)c2OC(=O)SCC)c1C [compound 73],100,70,98,95,0,100,100,100,0,30,100,100,98,100
COCc1c(S(C)(=O)=O)ccc(C(=O)c2cnn(C)c2OC(=O)SC)c1Cl [compound 74],80,70,100,95,20,95,90,100,0,40,98,100,98,70
CCSC(=O)Oc1c(C(=O)c2ccc(S(C)(=O)=O)c(CCOC)c2C)cnn1C [compound 75],100,100,100,98,0,100,100,98,10,40,100,100,98,80
CCSC(=O)Oc1c(C(=O)c2ccc(S(C)(=O)=O)c(COCCOC)c2C)cnn1C [compound 76],80,65,75,60,0,90,100,98,0,30,98,90,95,30
CCOCCOc1c(S(C)(=O)=O)ccc(C(=O)c2cnn(C)c2OC(=O)SCC)c1C [compound 77],98,70,80,70,0,90,95,98,0,10,98,95,95,40
CCSC(=O)Oc1c(C(=O)c2ccc(S(C)(=O)=O)c(OCCCl)c2C)cnn1C [compound 78],60,60,65,10,0,80,95,60,0,0,70,60,70,50
CCSC(=O)Oc1c(C(=O)c2ccc(S(C)(=O)=O)c(OCC(F)(F)F)c2C)cnn1C [compound 79],98,75,98,60,0,90,90,100,0,50,100,100,100,50
